# pEC50: −log10 of the molar value.
# Tested on: HT-29 cells
# Experiment: HT29 cells 0FBS assay in vitro: TNF-α/SMAC mimetic/zVAD-FMK induced necroptosis, CellTiter-Glo cell viability (RIP1 inhibitory activity)
# Assay type: cell-based
# Conditions: Homo sapiens, FBS free medium, TNF-α (10 ng/ml) + SMAC mimetic (6 uM) + zVAD-FMK (10 μM), 20 hours, geometric mean EC50
# Procedure, shortened: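 HT-29 cells (5,000/well, overnight) switched to FBS-free McCOY's 5A with TNF-α (10 ng/ml), SMAC mimetic (6 uM) and zVAD-FMK (10 μM) to drive necroptosis, plus compound, for 20 hours at 37° C. Viability read by CellTiter-Glo luminescence; geometric mean EC50 from 10-point duplicate dose-response.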
row,SMILES,pEC50
1,"Cc1nn(-c2cc(OC3CN(C(=O)N4N=CC[C@@H]4c4cc(F)cc(F)c4F)C3)c(F)cn2)c(C)c1C(=O)O [Compound 105, (R)-1-(5-fluoro-4-((1-(5-(2,3,5-trifluorophenyl)-4,5-dihydro-1H-pyrazole-1-carbonyl)azetidin-3-yl)oxy)pyridin-2-yl)-3,5-dimethyl-1H-pyrazole-4-carboxylic acid]",5.00 to 6.00
2,"CCS(=O)(=O)c1c(C)nn(-c2cc(OC3CN(C(=O)N4N=CC[C@H]4c4cc(F)cc(C#N)c4)C3)c(F)cn2)c1C [Compound 48, (S)-3-(1-(3-((2-(4-(ethylsulfonyl)-3,5-dimethyl-1H-pyrazol-1-yl)-5-fluoropyridin-4-yl)oxy)azetidine-1-carbonyl)-4,5-dihydro-1H-pyrazol-5-yl)-5-fluorobenzonitrile]",7.00 to 10.00
3,"Cc1nn(-c2cc(OC3CN(C(=O)N4N=CCC4c4cc(F)cc(Cl)c4)C3)c(F)cn2)c(C)c1C(N)=O (stereo not drawn) [Compound 117, 1-(4-((1-(5-(3-chloro-5-fluorophenyl)-4,5-dihydro-1H-pyrazole-1-carbonyl)azetidin-3-yl)oxy)-5-fluoropyridin-2-yl)-3,5-dimethyl-1H-pyrazole-4-carboxamide]",7.00 to 10.00
4,"CCNC(=O)c1c(C)nn(-c2cc(OC3CN(C(=O)N4N=CC[C@H]4c4cc(F)cc(C#N)c4)C3)c(F)cn2)c1C [Compound 87, (S)-1-(4-((1-(5-(3-cyano-5-fluorophenyl)-4,5-dihydro-1H-pyrazole-1-carbonyl)azetidin-3-yl)oxy)-5-fluoropyridin-2-yl)-N-ethyl-3,5-dimethyl-1H-pyrazole-4-carboxamide]",7.00 to 10.00
5,"Cc1nc([C@H]2CC=NN2C(=O)N2CC(Oc3cc(-c4c(C)cnn4C)ncc3F)C2)cs1 [Compound 121, (R)-(3-((2-(1,4-dimethyl-1H-pyrazol-5-yl)-5-fluoropyridin-4-yl)oxy)azetidin-1-yl)(5-(2-methylthiazol-4-yl)-4,5-dihydro-1H-pyrazol-1-yl)methanone]",5.00 to 6.00
6,"Cc1cnn(C)c1-c1nc(OC2CN(C(=O)N3N=CC[C@H]3c3cncc(F)c3)C2)sc1C#N [Compound 152, (S)-4-(1,4-dimethyl-1H-pyrazol-5-yl)-2-((1-(5-(5-fluoropyridin-3-yl)-4,5-dihydro-1H-pyrazole-1-carbonyl)azetidin-3-yl)oxy)thiazole-5-carbonitrile]",7.00 to 10.00
7,"Cc1cnn(C)c1-c1cc(OC2CN(C(=O)N3N=CC[C@H]3c3cncc(C#N)c3)C2)c(F)cn1 [Compound 42, (S)-5-(1-(3-((2-(1,4-dimethyl-1H-pyrazol-5-yl)-5-fluoropyridin-4-yl)oxy)azetidine-1-carbonyl)-4,5-dihydro-1H-pyrazol-5-yl)nicotinonitrile]",7.00 to 10.00
8,CNC(=O)c1c(C)nn(-c2cc(OC3CN(C(=O)N4N=CC[C@H]4c4ccccc4)C3)c(F)cn2)c1C [Compound 78],7.00 to 10.00
9,"CNC(=O)c1c(C)nn(-c2cc(OC3CN(C(=O)N4N=CC[C@H]4c4cncc(C#N)c4)C3)c(F)cn2)c1C [Compound 81, (S)-1-(4-((1-(5-(5-cyanopyridin-3-yl)-4,5-dihydro-1H-pyrazole-1-carbonyl)azetidin-3-yl)oxy)-5-fluoropyridin-2-yl)-N,3,5-trimethyl-1H-pyrazole-4-carboxamide]",6.00 to 7.00
10,"Cc1nn(C)c(C)c1-c1cc(OC2CN(C(=O)N3N=CC[C@H]3c3cc(F)cc(C#N)c3)C2)c(F)cn1 [Compound 47, (S)-3-fluoro-5-(1-(3-((5-fluoro-2-(1,3,5-trimethyl-1H-pyrazol-4-yl)pyridin-4-yl)oxy)azetidine-1-carbonyl)-4,5-dihydro-1H-pyrazol-5-yl)benzonitrile]",7.00 to 10.00
11,"Cn1nccc1-c1cc(OC2CN(C(=O)N3N=CC[C@H]3c3cncc(F)c3)C2)c(F)cn1 [Compound 27, (S)-(3-((5-fluoro-2-(1-methyl-1H-pyrazol-5-yl)pyridin-4-yl)oxy)azetidin-1-yl)(5-(5-fluoropyridin-3-yl)-4,5-dihydro-1H-pyrazol-1-yl)methanone]",7.00 to 10.00
12,"Cc1nn(-c2cc(OC3CN(C(=O)N4N=CC[C@H]4c4cc(F)cc(F)c4F)C3)c(F)cn2)c(C)c1C(N)=O [Compound 102, (S)-1-(5-fluoro-4-((1-(5-(2,3,5-trifluorophenyl)-4,5-dihydro-1H-pyrazole-1-carbonyl)azetidin-3-yl)oxy)pyridin-2-yl)-3,5-dimethyl-1H-pyrazole-4-carboxamide]",7.00 to 10.00
13,"O=C(N1CC(Oc2cc(-c3ccc[nH]c3=O)ncc2F)C1)N1N=CC[C@H]1c1cc(F)cc(F)c1 [Compound 167, (S)-4-((1-(5-(3,5-difluorophenyl)-4,5-dihydro-1H-pyrazole-1-carbonyl)azetidin-3-yl)oxy)-5-fluoro-[2,3′-bipyridin]-2′(1′H)-one]",7.00 to 10.00
14,"Cc1cc(-c2cc(OC3CN(C(=O)N4N=CC[C@H]4c4cncc(F)c4)C3)c(F)cn2)n(C)n1 [Compound 29, (S)-(3-((2-(1,3-dimethyl-1H-pyrazol-5-yl)-5-fluoropyridin-4-yl)oxy)azetidin-1-yl)(5-(5-fluoropyridin-3-yl)-4,5-dihydro-1H-pyrazol-1-yl)methanone]",7.00 to 10.00
15,"Cc1cnn(C)c1-c1cc(OC2CN(C(=O)C3=NNCC3c3cc(F)cc(F)c3)C2)c(F)cn1 (stereo not drawn) [Compound 161, (4-(3,5-difluorophenyl)-4,5-dihydro-1H-pyrazol-3-yl)(3-((2-(1,4-dimethyl-1H-pyrazol-5-yl)-5-fluoropyridin-4-yl)oxy)azetidin-1-yl)methanone]",7.00 to 10.00
16,"Cc1cnn(C)c1-c1cc(OC2CN(C(=O)N3N=CCC3c3cncs3)C2)c(F)cn1 (stereo not drawn) [Compound 91, (3-((2-(1,4-dimethyl-1H-pyrazol-5-yl)-5-fluoropyridin-4-yl)oxy)azetidin-1-yl)(5-(thiazol-5-yl)-4,5-dihydro-1H-pyrazol-1-yl)methanone]",7.00 to 10.00
17,"Cc1noc(C)c1-c1cc(OC2CN(C(=O)N3N=CC[C@H]3c3cc(F)cc(C#N)c3)C2)c(F)cn1 [Compound 89, (S)-3-(1-(3-((2-(3,5-dimethylisoxazol-4-yl)-5-fluoropyridin-4-yl)oxy)azetidine-1-carbonyl)-4,5-dihydro-1H-pyrazol-5-yl)-5-fluorobenzonitrile]",7.00 to 10.00
18,"Cc1nn(-c2cc(OC3CN(C(=O)N4N=CC[C@H]4c4cc(F)cc(C#N)c4)C3)c(F)cn2)c(C)c1C(=O)NC1CC1 [Compound 86, (S)-1-(4-((1-(5-(3-cyano-5-fluorophenyl)-4,5-dihydro-1H-pyrazole-1-carbonyl)azetidin-3-yl)oxy)-5-fluoropyridin-2-yl)-N-cyclopropyl-3,5-dimethyl-1H-pyrazole-4-carboxamide]",7.00 to 10.00
19,"Cn1cccc(-c2cc(OC3CN(C(=O)N4N=CC[C@H]4c4cc(F)cc(F)c4)C3)c(F)cn2)c1=O (stereo in doubt) [Compound 169, 4-((1-(5-(3,5-difluorophenyl)-4,5-dihydro-1H-pyrazole-1-carbonyl)azetidin-3-yl)oxy)-5-fluoro-1′-methyl-[2,3′-bipyridin]-2′(1′H)-one]",6.00 to 7.00
20,"Cc1c(-c2cc(OC3CN(C(=O)N4N=CC[C@H]4c4cccc(F)c4)C3)c(F)cn2)nn(C)c1C(N)=O [Compound 111, (S)-3-(5-fluoro-4-((1-(5-(3-fluorophenyl)-4,5-dihydro-1H-pyrazole-1-carbonyl)azetidin-3-yl)oxy)pyridin-2-yl)-1,4-dimethyl-1H-pyrazole-5-carb oxamide]",7.00 to 10.00
21,"Cc1csc(C2CC=NN2C(=O)N2CC(Oc3cc(-c4c(C)cnn4C)ncc3F)C2)n1 (stereo not drawn) [Compound 97, (3-((2-(1,4-dimethyl-1H-pyrazol-5-yl)-5-fluoropyridin-4-yl)oxy)azetidin-1-yl)(5-(4-methylthiazol-2-yl)-4,5-dihydro-1H-pyrazol-1-yl)methanone]",6.00 to 7.00
22,"Cc1nc(C2CC=NN2C(=O)N2CC(Oc3cc(-c4c(C)cnn4C)c(F)cc3F)C2)cs1 (stereo not drawn) [Compound 131, (3-(5-(1,4-dimethyl-1H-pyrazol-5-yl)-2,4-difluorophenoxy)azetidin-1-yl)(5-(2-methylthiazol-4-yl)-4,5-dihydro-1H-pyrazol-1-yl)methanone]",7.00 to 10.00
23,"Cc1noc(C)c1-c1ncc(F)c(OC2CN(C(=O)N3N=CC[C@H]3c3cc(F)cc(C#N)c3)C2)n1 [Compound 3, (S)-3-(1-(3-((2-(3,5-dimethylisoxazol-4-yl)-5-fluoropyrimidin-4-yl)oxy)azetidine-1-carbonyl)-4,5-dihydro-1H-pyrazol-5-yl)-5-fluorobenzonitrile]",7.00 to 10.00
24,"Cn1ncc(-c2cc(OC3CN(C(=O)N4N=CC[C@H]4c4cc(F)cc(C#N)c4)C3)c(F)cn2)n1 [Compound 15, (S)-3-fluoro-5-(1-(3-((5-fluoro-2-(2-methyl-2H-1,2,3-triazol-4-yl)pyridin-4-yl)oxy)azetidine-1-carbonyl)-4,5-dihydro-1H-pyrazol-5-yl)benzonitrile]",6.00 to 7.00
25,"Cc1nn(-c2cc(OC3CN(C(=O)N4N=CC[C@H]4c4ccccc4)C3)c(F)cn2)c(C)c1C(=O)O [Compound 84, (S)-1-(5-fluoro-4-((1-(5-phenyl-4,5-dihydro-1H-pyrazole-1-carbonyl)azetidin-3-yl)oxy)pyridin-2-yl)-3,5-dimethyl-1H-pyrazole-4-carboxylic acid]",7.00 to 10.00
26,"Cc1cnn(C)c1-c1ncc(F)c(OC2CN(C(=O)N3N=CC[C@H]3c3cncc(C#N)c3)C2)n1 [Compound 33, (S)-5-(1-(3-((2-(1,4-dimethyl-1H-pyrazol-5-yl)-5-fluoropyrimidin-4-yl)oxy)azetidine-1-carbonyl)-4,5-dihydro-1H-pyrazol-5-yl)nicotinonitrile]",7.00 to 10.00
27,"Cn1ncc(C#N)c1-c1ccc(F)c(OC2CN(C(=O)N3N=CC[C@H]3c3cncc(F)c3)C2)n1 [Compound 34, (S)-5-(5-fluoro-6-((1-(5-(5-fluoropyridin-3-yl)-4,5-dihydro-1H-pyrazole-1-carbonyl)azetidin-3-yl)oxy)pyridin-2-yl)-1-methyl-1H-pyrazole-4-carbonitrile]",7.00 to 10.00

# Reference: patent publication US20240294508A1, “RIP1 MODULATORS INCLUDING AZETIDINE CYCLIC UREAS, PREPARATIONS, AND USES THEREOF” (SIRONAX LTD., priority 2021, published 2024)
